Experiment: Neurotoxicity assay: MTS viability of primary cortical neuronal cultures
Format: cell-based, mouse
Settings: BL6Jx129sv, mouse, primary cortical neuronal cultures, Neuronal cells, read-out: Cytotoxicity (% viable at 1 and 10 uM); for viability at 4 days, 1 uM: test compound 1 uM; for viability at 4 days, 10 uM: test compound 10 uM
Protocol: Media was then replaced with Neurobasal media (Invitrogen Life Technologies) and B27 supplements (Invitrogen Life Technologies). Cultures were maintained at 37° C. in 5% CO2. Prior to experimentation, the culture medium was replaced with Neurobasal media and B27 minus antioxidants (Invitrogen Life Technologies).
Cell viability is determined using the MTS assay. Culture medium is replaced with fresh neurobasal medium plus B27 supplements minus antioxidants. 1/10th volume MTS solution (Cell Titre 96 Aqueous One, Promega Corporation) and incubated at 37° C., 2 hrs. 200 microlitre aliquots are measured with a spectrophotometer at 560 nm.
Neuronal cortical cells were cultured for five days as per Assay 2 in NB media and B27 supplement.
On day six the test compounds were added to the neuronal cell cultures in NB media and B27 supplement minus antioxidants.
Test compounds were dissolved in 100% DMSO to a concentration of 2.5 mM (10 mM if excess compound was weighed out per vial—then diluted to 2.5 mM). […] Test compounds were not added directly to cells, instead they were added to a 48 well ‘Drug Plate’ as comprised below:
The Drug Plate was incubated at 37° C. for 15 mins. 200 μl of each well was added in triplicate to the corresponding cell plate. The cell plate was incubated at 37 C, for 4 days.
On completion of the assay, 1/10 volume MTS was added per well of plate (i.e. 25 μl/250 μl). The plates were incubated at 37 C for 2 hrs, and then absorbance was read at 560 nm.

| SMILES | viability at 4 days, 1 uM | viability at 4 days, 10 uM |
| --- | --- | --- |
| Nc1ccc(O)c2ncccc12 | 108% | 71% |
| Oc1c(Cl)cc(Cl)c2cccnc12 | 98% | 75% |
| Oc1c(I)cc(I)c2cccnc12 | 91% | 95% |
| Oc1c(Br)cc(Br)c2cccnc12 | 100% | 94% |
| Oc1ccc(Cl)c2cccnc12 | 94% | 85% |
| Cc1ccc2cccc(O)c2n1 | 98% | 58% |
| Nc1ccc2cccc(O)c2n1 | 95% | 48% |
| N#Cc1ccc2cccc(O)c2n1 | 94% | 97% |
| Cc1cc(C)c2cccnc2c1O | 86% | 85% |
| Oc1ccc(/C=C/c2ccc3cccc(O)c3n2)cc1 | 100% | 75% |
| Oc1ccc(CCc2ccc3cccc(O)c3n2)cc1 | 89% | 86% |
| Oc1c(Br)cc(-c2ccccc2)c2cccnc12 | 100% | 97% |
| Oc1c(-c2ccccc2)cc(Cl)c2cccnc12 | 93% | 72% |
| Oc1c(-c2ccccc2)cc(-c2ccccc2)c2cccnc12 | 97% | 26% |
| COc1cccc(-c2cc(Cl)c3cccnc3c2O)c1 | 83% | 71% |
| O=[N+]([O-])c1cccc(-c2cc(Cl)c3cccnc3c2O)c1 | 92% | 78% |
| Oc1c(-c2ccc(F)cc2)cc(Cl)c2cccnc12 | 103% | 75% |
| Oc1c(-c2cc(F)cc(F)c2)cc(Cl)c2cccnc12 | 90% | 66% |
| COc1ccc(-c2cc(Cl)c3cccnc3c2O)cc1 | 97% | 31% |
| Oc1c(-c2ccccc2F)cc(Cl)c2cccnc12 | 96% | 54% |
| O=Cc1ccccc1-c1cc(Cl)c2cccnc2c1O | 109% | 99% |
| Oc1c(-c2cccc(F)c2)cc(Cl)c2cccnc12 | 98% | 71% |
| CN(C)c1ccc(-c2cc(Cl)c3cccnc3c2O)cc1 | 94% | 85% |
| Cc1ccccc1-c1cc(-c2ccccc2C)c2cccnc2c1O | 93% | 34% |
| Oc1c(Br)cc(-c2cc(F)cc(F)c2)c2cccnc12 | 95% | 95% |
| Cc1ccccc1-c1cc(Cl)c2cccnc2c1O | 100% | 100% |
| Cc1cccc(-c2cc(Cl)c3cccnc3c2O)c1 | 98% | 73% |

| SMILES | viability at 4 days, 1 uM | viability at 4 days, 10 uM |
| --- | --- | --- |
| O=C(NCCc1cnc[nH]1)c1cc(O)c2cccc(O)c2n1 | 100% | 100% |
| O=C(NCc1ccccn1)c1cc(O)c2cccc(O)c2n1 | 100% | 100% |
| O=C(O)CNC(=O)c1ccc2cccc(O)c2n1 | 100% | 89% |
| NCCNC(=O)c1ccc2cccc(O)c2n1 | 106% | 96% |
| N=C(N)NCc1ccc2cccc(O)c2n1 | 100% | 89% |
| CC(=O)NCc1ccc2cccc(O)c2n1 | 100% | 91% |
| NCc1ccc2cccc(O)c2n1 | 101% | 97% |
| O/N=C/c1ccc2cccc(O)c2n1 | 100% | 95% |
| Oc1c(-c2cc3ccccc3s2)cc(Cl)c2cccnc12 | 87% | 32% |
| Oc1c(-c2cc(Cl)c3cccnc3c2O)cc(Cl)c2cccnc12 | 97% | 84% |
| Oc1c(-c2ccsc2)cc(Cl)c2cccnc12 | 93% | 31% |
| Oc1c(-c2ccc(F)cc2F)cc(Cl)c2cccnc12 | 90% | 42% |
| Nc1ccccc1NC(=O)c1cc(O)c2cccc(O)c2n1 | 98% | 82% |
| O=C(CNC(=O)c1cc(O)c2cccc(O)c2n1)NCCc1c[nH]cn1 | 98% | 89% |
| O=C(CNC(=O)c1cc(O)c2cccc(O)c2n1)NCc1ccccn1 | 93% | 93% |
| Oc1cccc2ccc(CNCCc3c[nH]cn3)nc12 | 101% | 43% |
| CN(CCc1ccccn1)Cc1ccc2cccc(O)c2n1 | 97% | 57% |
| Oc1cccc2ccc(CNCc3ccccn3)nc12 | 96% | 67% |
| O=C(O)CNC(=O)c1cc(O)c2cccc(O)c2n1 | 98% | 94% |
| Cc1nccn1-c1ccc2cccc(O)c2n1 | 104% | 96% |
| Oc1cccc2ccc(-n3cncn3)nc12 | 102% | 97% |
| Oc1cccc2ccc(CN(CCc3c[nH]cn3)Cc3nccs3)nc12 | 82% | 34% |
| Oc1cccc2ccc(CN(Cc3ccccn3)Cc3nccs3)nc12 | 97% | 38% |
| CSc1ccccc1-c1ccc2cccc(O)c2n1 | 114% | 112% |
| Oc1cccc2ccc(-c3ccccn3)nc12 | 107% | 75% |
| Cc1cccc(-c2ccc3cccc(O)c3n2)n1 | 91% | 58% |
| Oc1cccc2ccc(CN(CCc3c[nH]cn3)Cc3c[nH]cn3)nc12 | 97% | 26% |

| SMILES | viability at 4 days, 1 uM | viability at 4 days, 10 uM |
| --- | --- | --- |
| Oc1cccc2ccc(CN(CCc3c[nH]cn3)Cc3ccccn3)nc12 | 98% | 27% |
| Oc1cccc2ccc(CN(Cc3ccccn3)Cc3ccccn3)nc12 | 87% | 23% |
| Oc1cccc2ccc(CN(Cc3ccccn3)Cc3c[nH]cn3)nc12 | 90% | 70% |
| O=C(c1ccc2cccc(O)c2n1)N(Cc1ccccn1)Cc1ccccn1 | 81% | 79% |
| CC(=O)Nc1ccc2cccc(O)c2n1 | 93% | 89% |
| O/N=C/c1ccc2c(Cl)cc(Cl)c(O)c2n1 | 91% | 70% |
| CO/N=C/c1ccc2c(Cl)cc(Cl)c(O)c2n1 | 77% | 54% |
| NC(=O)c1ccc2c(Cl)cc(Cl)c(O)c2n1 | 74% | 86% |
| O=C(O)c1ccc2c(Cl)cc(Cl)c(O)c2n1 | 88% | 80% |
| O=c1[nH]cnc2c(O)cccc12 | 101% | 89% |
| Oc1c(Cl)cc(Cl)c2ccc(-c3ccccn3)nc12 | 55% | 31% |
| CN(c1ccccn1)c1ccc2c(Cl)cc(Cl)c(O)c2n1 | 100% | 59% |
| Oc1c(Cl)cc(-c2cccnc2)c2cccnc12 | 101% | 84% |
| Oc1c(Cl)cc(Cl)c2cc(Cl)cnc12 | 82% | 55% |
| Nc1cnc2c(O)c(Cl)cc(Cl)c2c1 | 94% | 10% |
| Cc1cnc2c(Cl)cc(Cl)c(O)c2n1 | 100% | 93% |
| Cc1cnc2c(O)c(Cl)cc(Cl)c2n1 | 94% | 87% |
| O=c1c2c(Cl)cc(Cl)c(O)c2ncn1CC1CCNCC1 | 97% | 96% |
| CCCn1c(CNC)nc2c(O)c(Cl)cc(Cl)c2c1=O | 110% | 102% |
| COc1c(Cl)cc(Cl)c2c(=O)n(N)cnc12 | 99% | 93% |
| CNCc1ccc2c(Cl)cc(Cl)c(O)c2n1 | 86% | 78% |
| NCc1ccc2c(Cl)cc(Cl)c(O)c2n1 | 100% | 80% |
| CCN(CC)Cc1ccc2c(Cl)cc(Cl)c(O)c2n1 | 74% | 70% |
| Oc1cccc2c(=S)n(Cc3ccccn3)cnc12 | 97% | 90% |
| CC(Br)CCn1cnc2c(O)c(Cl)cc(Cl)c2c1=O (stereo not shown) | 101% | 73% |
| CCOC(=O)c1cnc2c(O)c(CC)ncc2c1 | 103% | 92% |

Source: US20100069393A1, “METHOD OF TREATMENT AND AGENTS USEFUL FOR SAME” (PRANA BIOTECHNOLOGY LIMITED, priority 2006, published 2010)
